“Also recorded” adds a separate entry of the source. Like-named read-outs stand apart in the source and are kept apart here.
Experiments:
[1] = system: mitochondrial PLD of sweet corn kernel; assay: Phospholipase D activity by release of radiolabelled choline, mitochondrial fraction; format: biochemical, Zea mays
Description: (§1) Protein Extraction. Sweet corn (Zea mays L. cv Peaches and Cream) was used for this study. The kernels were obtained locally from a grocery store and stored frozen at −20° C. until it was used for protein extraction. Frozen kernels were homogenized in 0.1 m Tris-HCl buffer at pH 7.5 essentially as described by Pinhero et al. (1998), except that sucrose was not included in the homogenizing buffer. The mitochondrial, microsomal and the cytosolic fractions were collected by differential centrifugation (Pinhero et al., 1998). The fraction comprising the starch granules was removed by centrifuging the samples at 2500×g for 10 minutes. The resulting supernatant was subjected to centrifugation at 15,000×g to pellet the mitochondrial membrane fraction (Edwards and Gardestrom, 1987). The supernatant from this step was centrifuged at 105,000×g to pellet the microsomal membranes. The supernatant comprising the cytosol was subjected to ammonium sulphate fractionation at 30 and 60% saturation. The precipitated protein was collected by centrifugation at 15000×g and redissolved in 10 mM Tris-HCl pH 7.0 and dialyzed overnight with the same buffer, also containing 0.1 mM DTT, with two changes of 2 L each. Protein concentration was determined by the method of Bradford (1976) using bovine serum albumin as a standard. All steps of protein extraction procedure were carried out at 4° C.
(§2) Enzyme Assay. PLC activity was determined as described by Pinhero et al. (1998) by measuring the release of radiolabelled choline from L3-phosphatidyl(N-methyl-^3H) choline,1,2-dipalmitoyl at 23° C. The basic assay mixture contained 0.1 M Tris-HCl (pH 7.5), 0.2 mM EGTA, membrane or cytosol protein (2.5 μg), and approximately 100,000 dpm of choline-labelled phosphatidylcholine in 0.1% (v/v) Triton-X 100 (0.01% final), to make a total volume of 1 ml. To study the regulation of PLD by alcohols, aldehydes and metal ions, the appropriate amounts of the reagent solutions were added to the basic reaction mixture. Similarly, citrate and Tris-HCl buffers were used to study the effect of pH on PLD activity. The reaction was terminated after 10 minutes by adding 100 μL of 4 N HCl followed by 1 mL of chloroform/methanol (2:1, v/v) and left overnight. The amount of [^3H]choline released during the reaction was determined by mixing a 0.5 ml aliquot of the aqueous phase directly into 5 ml of scintillation fluid (Ecolume, ICN) and determining the amount of radiolabel using a Beckman LS 6800 Scintillation counter (Beckman Instruments Inc.).

[2] = system: phospholipase D in sweet corn kernel; assay: Phospholipase D activity by release of radiolabelled choline, fractions not distinguished; format: biochemical, Zea mays; details: sweet corn kernel preparations, fraction not specified
Description: Protein Extraction. Sweet corn (Zea mays L. cv Peaches and Cream) was used for this study. The kernels were obtained locally from a grocery store and stored frozen at −20° C. until it was used for protein extraction. […] The fraction comprising the starch granules was removed by centrifuging the samples at 2500×g for 10 minutes. […] The supernatant from this step was centrifuged at 105,000×g to pellet the microsomal membranes. The supernatant comprising the cytosol was subjected to ammonium sulphate fractionation at 30 and 60% saturation. The precipitated protein was collected by centrifugation at 15000×g and redissolved in 10 mM Tris-HCl pH 7.0 and dialyzed overnight with the same buffer, also containing 0.1 mM DTT, with two changes of 2 L each. […] All steps of protein extraction procedure were carried out at 4° C.
as §2, with “PLC activity was determined as described by Pinhero et al. (1998) by measuring the release of radiolabelled choline from L3-phosphatidyl(N-methyl-^3H) choline,1,2-dipalmitoyl at 23° C.” left out
Protein Extraction: Sweet corn (Zea mays L. cv Peaches and Cream) was used for this study. The kernels were obtained locally from a grocery store and stored frozen at −20° C. until used. Frozen kernels were homogenized in 0.1 M Tris-HCl buffer at pH 7.5, containing 1 mM dithiothreitol, I mM phenylmethanesulfonylfluoride, 2 mM EDTA and 1 mM EGTA. The homogenate was filtered through four layers of cheese clothe. After removing the debris, the homogenate was subjected to differential centrifugation to separate mitochondria, microsomes and cytosol. The fraction comprising starch granules was removed by centrifuging the samples at 2500×g for 10 min. The resulting supernatant was subjected to centrifugation at 15000×g to pellet the mitochondrial membrane fraction. The supernatant from this step was centrifuged at 105,000×g to pellet the microsomal membranes. The supernatant was subjected to ammonium sulfate fractionation at 30 and 60% saturation to precipitate the cytosolic proteins. The precipitated proteins were pelleted by centrifugation at 15000×g and dissolved in 10 mM Tris HCI, pH 7.5, and dialyzed overnight in the same buffer also containing 0.1 mM DTT. Resuspended microsomal, mitochondrial membrane preparation and the cytosolic proteins were stored at −80° C. until used for phospholipase D assays.
Assay for Phospholipase D: Phospholipase D activity was determined by the liberation of choline from choline methyl labelled dipalmitoylphosphatidylcholine [L3-phosphatidyl (N-methyl-3H) choline 1,2-dipalmitoyl]. The basic assay mixture contained 0.1 M. Tris-HCl, pH 7.5, 0.2 mM EGTA, 1-2.5 ug of membrane or cytosolic protein (precipitated at 60% ammonium sulfate saturation) and 100,000 dpm of choline-labelled phosphatidylcholine in 0.1% Triton X-100 (final 0.01%), in a total volume of 1 ml. Hexanal and hexanol was added to the assay mixture and incubated for 5 min prior to the addition of substrate. The reaction was terminated after 10 min by the addition of 100 uL of 4N HCl, followed by 1 ml of chloroform: methanol (2:1 v/v) and left overnight.

[3] = system: microsomal PLD of sweet corn kernel; assay: Phospholipase D activity by release of radiolabelled choline, microsomal fraction; format: biochemical, Zea mays
Description: as §1, §2

[4] = system: cytosolic PLD of sweet corn kernel; assay: Phospholipase D activity by release of radiolabelled choline, cytosolic fraction; format: biochemical, Zea mays
Description: as §1, §2

[5] = system: PLD in leaf and root tissues of maize seedlings; details: cited from earlier work
[6] = system: parsley leaves; assay: Parsley leaf senescence, excised leaves incubated in the dark for fourteen days; details: increasing amounts in 2.5 ml water with 0.001% Tween-20, fourteen days in the dark
Description: Mature parsley leaves were excised and floated in water to randomize the leaves. After thorough washing 10 leaflets were incubated in petri plates lined with Whatman #1 filter paper and containing 2.5 ml of water containing various amounts of hexanal and 0.001% final Tween −20. Controls with water alone and Tween −20 were also incubated. The petri plates were incubated in the dark for fourteen days. The leaves were removed, chopped to fine pieces, and portions used for protein and pigment analyses. For protein analysis, a known amount of leaf segments (usually 0.6-0.7 g) were ground with 0.1 N NaOH (1 ml). After removing the debris by centrifugation, protein was determined in aliquots, using the dye-binding method by Bradford, 1976. To measure the pigments, leaf segments were extracted with 5 ml of 95% ethanol overnight in the dark. The absorbance readings were measured at […] to estimate chlorophyll a, at 647 nm for chlorophyll b and at […] for carotenoid. The data presented are the mean of two independent estimations from two sets of leaves incubated separately.

[7] = system: phospholipase D; details: reported in plants; cited from earlier work
[8] = system: PLD; details: animal systems; cited from earlier work
[9] = acetaldehyde, concentration not stated (discussion)
[10] = 0.2 mM of added calcium (10 μM of free calcium)
[11] = maximal stimulation, at 0.5 mM of added calcium, 0.2 mM EGTA in assay
[12] = alcohol added to the assay mixture
[13] = increasing alcohol in the assay mixture
[14] = maximal stimulation, at 50 μM magnesium chloride

Compound: [Cl-].[K+] [KCl, potassium chloride]
- effect on mitochondrial PLD activity ([1]; monovalent salt up to 5 mM): nearly similar activity with respect to their respective controls
- effect on PLD activity [2]: did not affect PLD activity substantially; also recorded: did not appear to have any major effects on PLD activity
- effect on microsomal PLD activity ([3]; monovalent salt up to 5 mM): inhibited
- effect on cytosolic PLD activity ([4]; monovalent salt up to 5 mM): nearly similar activity with respect to their respective controls

Compound: CC=O [acetaldehyde]
- inhibition of mitochondrial PLD activity ([1]; 2% v/v acetaldehyde): 80%
- inhibition of mitochondrial PLD activity [1, 9]: over 75%
- inhibition of microsomal PLD activity ([3]; 2% v/v acetaldehyde): 80%
- inhibition of microsomal PLD activity [3, 9]: over 75%
- inhibition of cytosolic PLD activity ([4]; 2% v/v acetaldehyde): 80%
- inhibition of cytosolic PLD activity [4, 9]: over 75%

Compound: [Ca+2] [calcium]
- effect on PLD activity [5]: not stimulated
- effect on mitochondrial PLD activity ([1]; 0.5 mM of added calcium, 0.2 mM EGTA in assay): marginal stimulation
- effect on PLD activity [2]: marginally stimulated
- stimulation of microsomal PLD activity [3, 10]: ~40%
- stimulation of microsomal PLD activity [3, 11]: 40-50%
- stimulation of cytosolic PLD activity [4, 10]: ~40%
- stimulation of cytosolic PLD activity [4, 11]: 40-50%

Compound: CCO [ethanol]
- effect on mitochondrial PLD activity [1, 12]: stimulation in the activity
- stimulation of mitochondrial PLD activity ([1]; maximal stimulation, at 0.25% ethanol (v/v)): 100%
- effect on microsomal PLD activity [3]: stimulation in the activity
- stimulation of microsomal PLD activity [3]: 50%
- effect on cytosolic PLD activity ([4]; ethanol levels above 0.5%): inhibited
- effect on cytosolic PLD activity [4, 13]: marginal stimulation initially followed by a decline in activity

Compound: CCCCCC=O [hexanal]
- effect on PLD activity [2]: potent inhibition of PLD activity; also recorded: effective inhibitors of PLD activity

Compound: CCCCCCO [hexanol]
- amount of chlorophyll in parsley leaves versus controls [6]: greater amounts of chlorophyll than controls
- senescence or aging of parsley leaves [6]: less senescence or aging has occurred
- effect on PLD activity [2]: potent inhibition of PLD activity; also recorded: effective inhibitors of PLD activity

Compound: [Cl-].[Cl-].[Mg+2] [magnesium chloride]
- effect on PLD activity [5]: not stimulated
- effect on PLD activity [2]: slightly higher than that of calcium ions
- stimulation of microsomal PLD activity [3, 14]: ~100%
- stimulation of cytosolic PLD activity [4, 14]: ~100%

Compound: CCCO [propanol]
- effect on mitochondrial PLD activity [1, 12]: only a marginal increase
- effect on PLD activity [2]: marginal
- promotion in microsomal PLD activity ([3]; between 0.1 and 1% (v/v) propanol): 20-25%
- effect on cytosolic PLD activity [4, 13]: initial promotion of cytosolic activity followed by a decline

Compound: [Cl-].[Na+] [sodium chloride]
- effect on mitochondrial PLD activity ([1]; monovalent salt up to 5 mM): remained nearly the same
- effect on PLD activity [2]: did not affect PLD activity substantially; also recorded: did not appear to have any major effects on PLD activity
- effect on microsomal PLD activity ([3]; monovalent salt up to 5 mM): remained nearly the same
- effect on cytosolic PLD activity ([4]; monovalent salt up to 5 mM): remained nearly the same

Compound: Lysophosphatidylethanolamine
- inhibition of phospholipase D [7]: potent inhibitor of phospholipase D

Compound: hydroxy hexenal
- effect on PLD [8]: promoters of PLD

Compound: n-butanol
- effect on mitochondrial PLD activity [1, 12]: decline in activity
- effect on PLD activity [2]: marginal
- effect on microsomal PLD activity [3, 12]: decline in activity
- effect on cytosolic PLD activity [4, 13]: decline in activity
